Results reported in patent publication US20080171097A1, “PRODUCT LIQUORICE ROOT AND OAK BARK IN COMBINATION WITH DEXAPANTHENOL” (priority 2007, published 2008).

System: herpes disease in the lip region (herpes blisters)
Experiment: Topical application of the composition in the oral and/or pharyngeal cavity of voluntary test persons (herpes blisters, other inflammations)
Assay type: in vivo, human (voluntary test persons)
Settings: a test subject
Source text: This composition was applied in the oral and/or pharyngeal cavity of voluntary test persons. When there were signs that herpes blisters were about to occur or when herpes blisters had already occurred, the composition was applied several times daily to the affected skin sites using a cotton bud. In the case of other inflammations in the oral and/or pharyngeal cavity the solution was also either applied locally or a dilution of this solution was gurgled.

## Nc1nc2c(ncn2COCCO)c(=O)[nH]1 [Aciclovir]
  relapse / reoccurrence after treatment and healing of acute herpes blisters: relapses very often occurred again within the following 14 days
